Data from ChEMBL document CHEMBL1201862, “PubChem BioAssay data set” (2004).
Active and inactive are the calls of the source.

Assays:
[1] = biological target: T1, Short transient receptor potential channel 4 (Mus musculus, UniProt Q9QUQ5); test: mouse TRPC4 channel inhibitors, dose response, cell-based, HEK293 TRPC4/mu-opioid, Fluo-4 calcium (AID 434942); type: functional;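 further: potency of inhibitors blocking the TRPC4 calcium response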
T1 sequence (Q9QUQ5 whole entry): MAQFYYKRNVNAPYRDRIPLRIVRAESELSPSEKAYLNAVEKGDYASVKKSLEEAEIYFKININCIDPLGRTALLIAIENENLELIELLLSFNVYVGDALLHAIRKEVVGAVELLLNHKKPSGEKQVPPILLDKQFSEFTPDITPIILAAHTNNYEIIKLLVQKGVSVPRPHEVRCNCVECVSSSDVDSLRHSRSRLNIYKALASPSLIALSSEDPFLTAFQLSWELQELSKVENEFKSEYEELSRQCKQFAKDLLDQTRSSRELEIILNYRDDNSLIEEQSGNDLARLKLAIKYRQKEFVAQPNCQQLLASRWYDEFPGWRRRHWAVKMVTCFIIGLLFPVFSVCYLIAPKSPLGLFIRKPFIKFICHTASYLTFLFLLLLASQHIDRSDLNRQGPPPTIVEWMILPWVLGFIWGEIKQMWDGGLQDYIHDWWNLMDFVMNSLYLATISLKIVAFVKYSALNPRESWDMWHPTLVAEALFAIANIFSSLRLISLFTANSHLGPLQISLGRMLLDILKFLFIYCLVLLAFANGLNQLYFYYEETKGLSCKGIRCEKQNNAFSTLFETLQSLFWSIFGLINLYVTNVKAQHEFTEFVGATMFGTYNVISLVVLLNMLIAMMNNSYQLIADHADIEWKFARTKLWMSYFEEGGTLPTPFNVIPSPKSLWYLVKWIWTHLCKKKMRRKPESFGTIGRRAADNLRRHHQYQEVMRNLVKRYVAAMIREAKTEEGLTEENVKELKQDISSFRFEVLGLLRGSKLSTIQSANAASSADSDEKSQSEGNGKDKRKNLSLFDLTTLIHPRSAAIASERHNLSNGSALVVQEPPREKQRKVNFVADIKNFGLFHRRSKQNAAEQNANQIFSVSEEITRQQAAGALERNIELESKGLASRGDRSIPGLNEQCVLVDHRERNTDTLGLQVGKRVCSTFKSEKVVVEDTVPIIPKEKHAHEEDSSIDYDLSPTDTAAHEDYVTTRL

[2] = biological target: Beta-2 adrenergic receptor (Homo sapiens, UniProt P07550); test: beta2AR agonists driving receptor internalization, dose response, cell-based, FAP fluorogen, flow cytometry, cherry pick 1 (AID 588763); type: functional
Sequence of Beta-2 adrenergic receptor (P07550 whole entry): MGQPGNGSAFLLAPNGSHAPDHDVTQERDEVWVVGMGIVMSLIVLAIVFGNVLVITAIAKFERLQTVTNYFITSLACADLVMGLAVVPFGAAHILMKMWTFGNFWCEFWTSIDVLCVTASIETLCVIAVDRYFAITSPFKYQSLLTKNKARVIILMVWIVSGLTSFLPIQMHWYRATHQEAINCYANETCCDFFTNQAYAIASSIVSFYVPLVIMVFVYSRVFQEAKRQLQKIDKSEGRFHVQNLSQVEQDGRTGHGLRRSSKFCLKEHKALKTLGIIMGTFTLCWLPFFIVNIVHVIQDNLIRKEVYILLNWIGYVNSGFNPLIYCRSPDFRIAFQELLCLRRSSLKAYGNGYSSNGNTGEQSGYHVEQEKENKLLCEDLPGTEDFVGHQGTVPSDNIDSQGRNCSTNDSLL

Nonstructural protein 1 = Nonstructural protein 1 (Influenza A virus, UniProt Q194T2); type: functional, Influenza A virus (A/California/07/2009(H1N1))
Sequence of Nonstructural protein 1 (Q194T2 whole entry): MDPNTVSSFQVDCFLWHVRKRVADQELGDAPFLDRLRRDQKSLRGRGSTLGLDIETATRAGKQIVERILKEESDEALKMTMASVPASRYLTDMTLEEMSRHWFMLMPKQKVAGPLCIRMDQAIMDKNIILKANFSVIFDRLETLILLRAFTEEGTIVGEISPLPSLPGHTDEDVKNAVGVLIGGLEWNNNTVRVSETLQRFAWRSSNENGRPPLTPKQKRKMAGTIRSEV

[3] = biological target: T2, Apoptotic protease-activating factor 1 (Homo sapiens, UniProt O14727); type: functional
T2 sequence (O14727 whole entry): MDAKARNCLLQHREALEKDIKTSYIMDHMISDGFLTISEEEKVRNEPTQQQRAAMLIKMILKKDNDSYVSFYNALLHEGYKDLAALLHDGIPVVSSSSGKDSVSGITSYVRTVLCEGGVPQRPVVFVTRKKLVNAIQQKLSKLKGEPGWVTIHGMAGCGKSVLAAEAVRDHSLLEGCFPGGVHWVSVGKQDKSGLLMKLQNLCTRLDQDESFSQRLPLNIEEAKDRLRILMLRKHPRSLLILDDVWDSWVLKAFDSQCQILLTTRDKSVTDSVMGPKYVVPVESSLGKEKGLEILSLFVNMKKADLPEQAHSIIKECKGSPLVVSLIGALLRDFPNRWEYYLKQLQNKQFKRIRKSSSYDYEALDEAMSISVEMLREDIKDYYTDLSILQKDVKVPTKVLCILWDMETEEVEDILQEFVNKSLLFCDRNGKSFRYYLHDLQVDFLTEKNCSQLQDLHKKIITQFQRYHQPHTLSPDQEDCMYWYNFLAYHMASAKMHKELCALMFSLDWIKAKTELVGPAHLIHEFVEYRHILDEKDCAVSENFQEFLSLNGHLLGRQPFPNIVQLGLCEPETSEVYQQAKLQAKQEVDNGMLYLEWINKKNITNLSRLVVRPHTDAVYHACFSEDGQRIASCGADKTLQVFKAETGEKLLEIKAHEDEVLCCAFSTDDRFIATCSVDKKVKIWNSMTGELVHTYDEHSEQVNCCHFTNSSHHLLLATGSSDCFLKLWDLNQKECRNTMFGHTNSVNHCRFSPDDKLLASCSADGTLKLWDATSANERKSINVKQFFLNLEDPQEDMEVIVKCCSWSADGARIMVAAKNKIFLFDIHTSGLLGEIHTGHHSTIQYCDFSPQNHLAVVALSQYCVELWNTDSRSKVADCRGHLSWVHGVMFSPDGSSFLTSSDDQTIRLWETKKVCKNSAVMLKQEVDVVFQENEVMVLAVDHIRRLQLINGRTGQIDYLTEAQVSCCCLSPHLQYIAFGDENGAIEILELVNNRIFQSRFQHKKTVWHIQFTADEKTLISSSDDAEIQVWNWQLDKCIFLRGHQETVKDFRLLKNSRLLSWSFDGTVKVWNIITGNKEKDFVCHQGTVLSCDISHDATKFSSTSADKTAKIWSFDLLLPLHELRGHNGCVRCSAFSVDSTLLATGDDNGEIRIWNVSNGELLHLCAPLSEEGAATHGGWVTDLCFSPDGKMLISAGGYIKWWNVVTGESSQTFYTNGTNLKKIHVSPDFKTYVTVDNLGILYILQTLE

[4] = tested on: Streptococcus sp. 'group A'; test: growth inhibition of control SK(-) GAS strain, dose response, counter-screen for streptokinase expression inhibitor project, luminescence, kanamycin, BacTiterGlo, confirmation (AID 1900); type: functional, organism-based
Streptokinase A = biological target: T3, Streptokinase A (Streptococcus pyogenes serotype M1, UniProt P10520); test: S. pyogenes streptokinase expression inhibitors, potency, dose response, plasminogen activation absorbance, OD405 (AID 1914); type: functional, Streptococcus pyogenes M1 GAS;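 further: secreted streptokinase activity via plasminogen activation per viability signal from cell pellet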
T3 sequence (P10520 whole entry): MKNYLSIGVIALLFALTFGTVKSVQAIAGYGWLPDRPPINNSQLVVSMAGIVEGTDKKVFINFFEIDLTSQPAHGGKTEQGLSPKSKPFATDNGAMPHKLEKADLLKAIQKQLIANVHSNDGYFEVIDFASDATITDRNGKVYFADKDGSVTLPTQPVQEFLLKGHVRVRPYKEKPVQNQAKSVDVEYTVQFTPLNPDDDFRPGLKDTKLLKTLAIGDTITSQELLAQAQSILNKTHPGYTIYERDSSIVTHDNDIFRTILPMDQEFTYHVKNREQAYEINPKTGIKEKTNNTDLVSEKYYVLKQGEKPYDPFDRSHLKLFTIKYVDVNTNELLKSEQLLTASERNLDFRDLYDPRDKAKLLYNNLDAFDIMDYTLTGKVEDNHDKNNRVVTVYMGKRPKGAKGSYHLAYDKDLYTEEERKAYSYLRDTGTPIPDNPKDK

Streptococcus = test: Group A Streptococcus viability loss, dose response, counter-screen for streptokinase expression inhibitor project, luminescence, BacTiterGlo (AID 1915); type: functional, organism-based;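 further: potency for reduction of bacterial viability or growth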
[5] = biological target: T4, Microphthalmia-associated transcription factor (Homo sapiens, UniProt O75030); test: TRPM1 promoter luciferase signal decrease, dose response, MITF inhibitor project, cell-based, SK-MEL-5, cherry-picked, set 3 (AID 493073); type: functional
T4 sequence (O75030 whole entry): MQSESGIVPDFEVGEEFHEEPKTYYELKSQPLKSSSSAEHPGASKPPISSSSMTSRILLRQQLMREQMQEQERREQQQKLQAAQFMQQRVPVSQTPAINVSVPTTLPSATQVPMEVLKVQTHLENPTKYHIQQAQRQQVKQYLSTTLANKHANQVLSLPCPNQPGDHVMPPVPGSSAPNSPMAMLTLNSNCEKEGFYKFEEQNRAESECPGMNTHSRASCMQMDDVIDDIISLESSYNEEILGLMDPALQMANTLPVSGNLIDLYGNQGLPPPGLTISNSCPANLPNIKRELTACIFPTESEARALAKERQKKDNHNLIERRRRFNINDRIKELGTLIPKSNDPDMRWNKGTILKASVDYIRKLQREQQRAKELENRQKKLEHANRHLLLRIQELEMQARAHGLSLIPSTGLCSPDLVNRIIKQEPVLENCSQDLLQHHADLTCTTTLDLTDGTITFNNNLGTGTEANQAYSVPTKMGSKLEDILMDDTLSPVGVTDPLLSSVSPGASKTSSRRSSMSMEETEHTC

INS1 = test: beta cell apoptosis inhibitors, cytokine rescue, dose response, luminescence, retest (AID 449756); type: functional, cell-based; settings: Rattus norvegicus;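 further: cell death triggered by IL-1 beta plus TNF-alpha plus IFN-gamma mixture; protective hits raise ATP signal compared with cytokine alone wells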
BJ [6] = test: cytotoxicity toward BJ-TERT fibroblasts, dose response, cell-based, RAS-independent, luminescence (AID 1933); type: functional; settings: Homo sapiens
BJ [7] = test: cells; type: functional, cell-based; settings: Homo sapiens
BJ [8] = test: cytotoxicity toward BJ-TERT-LT-ST fibroblasts, dose response, cell-based, RAS-independent, luminescence (AID 1935); type: functional; settings: Homo sapiens;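 further: BJ fibroblasts immortalized with TERT plus LT and ST oncogenes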
[9] = cytotoxicity toward DRD oncogenic fibroblasts, dose response, cell-based, non-viral oncogenic, luminescence (AID 1934); type: functional; settings: Homo sapiens
Tumor necrosis factor = Tumor necrosis factor (Homo sapiens, UniProt P01375); test: TNFa-triggered NF-kB activation inhibitors, SAR follow-up, cell-based, revised (AID 2337); type: functional
Sequence of Tumor necrosis factor (P01375 whole entry, the tested form may be a part): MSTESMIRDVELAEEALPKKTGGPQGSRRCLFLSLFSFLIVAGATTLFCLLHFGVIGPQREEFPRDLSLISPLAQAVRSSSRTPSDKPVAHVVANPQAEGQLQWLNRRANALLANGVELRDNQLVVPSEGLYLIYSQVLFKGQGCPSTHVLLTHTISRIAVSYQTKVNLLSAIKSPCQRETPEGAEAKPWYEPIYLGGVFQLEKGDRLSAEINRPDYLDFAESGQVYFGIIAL

[10] = biological target: T5, Nucleotide-binding oligomerization domain-containing protein 1 (Homo sapiens, UniProt Q9Y239); test: NOD1 signaling inhibitors, SAR follow-up, revised (AID 2333); type: functional
T5 sequence (Q9Y239 whole entry): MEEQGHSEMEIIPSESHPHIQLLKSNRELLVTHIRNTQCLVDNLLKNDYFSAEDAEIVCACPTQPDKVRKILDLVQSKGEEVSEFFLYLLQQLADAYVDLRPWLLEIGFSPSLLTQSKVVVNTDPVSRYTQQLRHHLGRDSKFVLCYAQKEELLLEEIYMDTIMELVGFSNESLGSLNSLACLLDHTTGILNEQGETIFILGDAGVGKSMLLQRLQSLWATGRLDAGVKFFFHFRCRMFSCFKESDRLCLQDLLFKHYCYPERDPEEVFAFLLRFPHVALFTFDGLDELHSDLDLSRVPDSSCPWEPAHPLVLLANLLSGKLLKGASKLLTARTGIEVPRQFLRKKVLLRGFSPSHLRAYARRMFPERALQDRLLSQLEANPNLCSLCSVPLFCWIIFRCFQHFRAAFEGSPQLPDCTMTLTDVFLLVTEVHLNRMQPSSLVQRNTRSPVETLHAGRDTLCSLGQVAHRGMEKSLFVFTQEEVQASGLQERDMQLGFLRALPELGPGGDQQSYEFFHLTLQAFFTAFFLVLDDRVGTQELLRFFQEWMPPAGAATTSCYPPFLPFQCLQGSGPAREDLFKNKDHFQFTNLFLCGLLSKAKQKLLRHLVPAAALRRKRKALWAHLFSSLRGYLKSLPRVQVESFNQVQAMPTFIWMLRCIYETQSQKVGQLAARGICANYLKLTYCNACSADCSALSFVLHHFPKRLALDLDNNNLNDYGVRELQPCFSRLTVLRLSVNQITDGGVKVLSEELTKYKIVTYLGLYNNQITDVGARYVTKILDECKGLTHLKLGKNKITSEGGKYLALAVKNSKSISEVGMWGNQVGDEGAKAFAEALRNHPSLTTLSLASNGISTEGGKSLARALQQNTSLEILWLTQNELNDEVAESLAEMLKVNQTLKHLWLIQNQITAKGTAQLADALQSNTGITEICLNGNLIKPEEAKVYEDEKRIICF

HEK293 = test: cells; settings: Homo sapiens;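 further: cells exposed to compound for 14 hours overnight before viability readout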

For `CC(C)(c1ccccc1)c1ccc(OCCCNCCO)cc1`, the EC50 [1] was 4.22 µM (active).

With `CCc1ccc(CNC(=O)c2ccc(NC(=O)C3=CSCCO3)cc2)cc1` the EC50 [2] was 0.0949 µM (active).

With `O=C1C(NS(=O)(=O)c2ccc(Cl)cc2)=C(N2CCCCC2)C(=O)c2ccccc21` the IC50 (Nonstructural protein 1) was 11.4 µM (active) and the IC50 [3] was 30.5 µM (active).

With `CCCCCn1cc[n+](C2=C([N-]S(=O)(=O)c3ccccc3)C(=O)c3ccccc3C2=O)c1` the EC50 [4] was 1.15 µM (active), the EC50 (Streptokinase A) was 3.69 µM (active) and the EC50 (Streptococcus) was 13.3 µM (active). For the same molecule, the AC50 [5] was 5.9 µM (active), the IC50 [3] was 13.8 µM (active) and the AC50 (INS1) was 4.7 µM (active).

With `COCCn1c(SCc2cc(C(C)=O)ccc2OC)nc2cc(Cl)ccc2c1=O` the EC50 [1] was 3.35 µM (active).

With `CCC(=O)Nc1ccc(-c2nn3c(C)nnc3s2)cc1C` the EC50 [2] was 3.12 µM (active).

In the case of `Clc1ccc(CN2C3=NCCN3c3ccccc32)cc1Cl`, the EC50 [1] is reported as 1.19 µM (active).

With `CC1(C)CC2CC(C)(CN2C(=O)c2cc(-c3ccc(O)cc3)on2)C1` (stereo not given) the EC50 [1] was 5.31 µM (active).

For `O=C(Nc1ccc(S(=O)(=O)N2CCCCC2)cc1)c1ccc(CN2CCc3ccccc3C2)cc1`, the EC50 (BJ [6]) was 23.9 µM (active), the EC50 (BJ [7]) was 51.8 µM (active) and the EC50 (BJ [8]) was > 150 µM (not active). For the same molecule, the EC50 [9] was 22 µM (active), the IC50 (Tumor necrosis factor) was 0.616 µM (active) and the IC50 [10] was 0.432 µM (active). For the same molecule, the IC50 (HEK293) was 19.5 µM (active).

For `COc1ccc(NC(=O)c2ccc(CN3CCCCC3)cc2)cc1`, the IC50 (Tumor necrosis factor) was > 20 µM (inactive), the IC50 [10] was > 20 µM (inactive) and the IC50 (HEK293) was > 20 µM (inactive).

In the case of `O=C(CN1CCCCC1)N1c2ccccc2Oc2ccccc21`, the EC50 [1] is reported as 6.68 µM (active).
